The results in this text go back to US9458133B2, “Isoquinolines as potassium ion channel inhibitors” (BRISTOL-MYERS SQUIBB COMPANY, priority 2013, dated 2016).

This experiment deals with T1, human Kv 1.5 (Homo sapiens, UniProt P22460).
T1 construct: expressed in transfected cells; host or cells: mouse L-929 fibroblasts stably expressing human Kv1.5
T1 sequence (P22460 whole entry): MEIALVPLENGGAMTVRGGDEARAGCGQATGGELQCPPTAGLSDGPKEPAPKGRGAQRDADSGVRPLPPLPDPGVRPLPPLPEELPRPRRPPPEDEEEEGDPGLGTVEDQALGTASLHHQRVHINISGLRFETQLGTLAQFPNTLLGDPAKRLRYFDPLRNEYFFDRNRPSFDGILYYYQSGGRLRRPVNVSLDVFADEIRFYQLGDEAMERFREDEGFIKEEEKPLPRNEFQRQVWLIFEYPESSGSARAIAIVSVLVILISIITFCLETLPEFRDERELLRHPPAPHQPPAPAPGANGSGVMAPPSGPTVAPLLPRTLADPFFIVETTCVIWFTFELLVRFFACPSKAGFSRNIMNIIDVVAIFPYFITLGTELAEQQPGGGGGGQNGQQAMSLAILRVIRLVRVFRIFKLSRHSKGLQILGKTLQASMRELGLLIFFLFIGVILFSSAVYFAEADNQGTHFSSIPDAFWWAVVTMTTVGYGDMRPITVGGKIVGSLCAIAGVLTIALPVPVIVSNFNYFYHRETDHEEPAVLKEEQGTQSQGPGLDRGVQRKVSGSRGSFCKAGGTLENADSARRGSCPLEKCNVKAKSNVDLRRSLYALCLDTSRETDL
Put plainly: Block of IKur current in patch clamped L-929 cells stably expressing human Kv1.5. The experiment is classed as cell-based. To be noted: L929, 0.3 μM; patch clamped mammalian L-929 cells expressing human Kv1.5 (IKur); read-out: KV1_5% Inh L929 @0.3 μM. From the text:
Synders, D. J. et al., “A rapidly activating and slowly inactivating potassium channel cloned from human heart: functional analysis after stable mammalian cell culture expression”, J. Gen. Physiol., 101:513-543 (1993). […]
In general terms: Patch clamp records ionic current or voltage across a cell membrane.
Take `NS(=O)(=O)c1ccc(-c2cc3cccc(-c4ccccc4)c3c(NCc3ccccn3)n2)cc1` [Example 33, 4-(8-phenyl-1-(pyridin-2-ylmethylamino)isoquinolin-3-yl)benzenesulfonamide]: the inhibition at 0.3 µM was determined as 73.4%. As for `NC(=O)CS(=O)(=O)c1cccc(-c2cc3cccc(-c4ccccc4)c3c(NCc3ccccn3)n2)c1` [Example 7, 2-(3-(8-Phenyl-1-(pyridin-2-ylmethylamino)isoquinolin-3-yl)phenylsulfonyl)acetamide], the figure is 34.8%; as for `Cc1ccccc1CNc1nc(-c2cncc(S(N)(=O)=O)c2)cc2cccc(-c3ccccc3)c12` [Example 45, 5-(1-(2-methylbenzylamino)-8-phenylisoquinolin-3-yl)pyridine-3-sulfonamide], 78.5%; as for `NS(=O)(=O)c1cncc(-c2cnc(NCC3CCCCO3)c3c(-c4ccccc4)cccc23)c1` (centres unmarked) [Example 82, 5-(8-phenyl-1-((tetrahydro-2H-pyran-2-yl)methylamino)isoquinolin-4-yl)pyridine-3-sulfonamide], 85%. As for `COc1cccc(CNc2nc(-c3cncc(S(N)(=O)=O)c3)cc3cccc(-c4ccccc4)c23)c1` [Example 54, 5-(1-(3-methoxybenzylamino)-8-phenylisoquinolin-3-yl)pyridine-3-sulfonamide], the figure is 82.4%. As for `NS(=O)(=O)c1cncc(-c2cc3cccc(-c4ccccc4)c3c(NCc3cccc(Cl)c3Cl)n2)c1` [Example 43, 5-(1-(2,3-dichlorobenzylamino)-8-phenylisoquinolin-3-yl)pyridine-3-sulfonamide], the figure is 16.3%; as for `CC(=O)Nc1cncc(-c2c(Cl)nc(NCc3ccccn3)c3c(-c4ccccc4)cccc23)c1` [Example 46, N-(5-(3-chloro-8-phenyl-1-(pyridin-2-ylmethylamino)isoquinolin-4-yl)pyridin-3-yl)acetamide], 98.4%; as for `NS(=O)(=O)c1cccc(-c2cc3cccc(-c4ccccc4)c3c(NCCCc3ccccc3)n2)c1` [Example 44, 3-(8-phenyl-1-(3-phenylpropylamino)isoquinolin-3-yl)benzenesulfonamide], 18.6%.

Regarding `O=C(O)c1cncc(-c2c(Cl)nc(NCc3ccccn3)c3c(-c4ccccc4)cccc23)c1` [Example 12, 5-(3-Chloro-8-phenyl-1-(pyridin-2-ylmethylamino)isoquinolin-4-yl)nicotinic acid], the inhibition at 0.3 µM amounted to 52.3%. As for `Nc1ccc(-c2c(Cl)nc(NCc3ccccn3)c3c(-c4ccccc4)cccc23)cc1` [Example 68, 4-(4-aminophenyl)-3-chloro-8-phenyl-N-(pyridin-2-ylmethyl)isoquinolin-1-amine], the inhibition at 0.3 µM was determined as 98.3%. As for `CS(=O)(=O)N(c1cncc(-c2cc3cccc(-c4ccccc4)c3c(NCc3ccccn3)n2)c1)S(C)(=O)=O` [Example 32, N-(methylsulfonyl)-N-(5-(8-phenyl-1-(pyridin-2-ylmethylamino)isoquinolin-3-yl)pyridin-3-yl)methanesulfonamide], the figure is 70.7%; as for `CS(=O)(=O)Nc1ccc(-c2cc3cccc(-c4ccccc4)c3c(NCc3ccccn3)n2)cn1` [Example 63, N-(5-(8-phenyl-1-(pyridin-2-ylmethylamino)isoquinolin-3-yl)pyridin-2-yl)methanesulfonamide], 53.2%; as for `NC(=O)c1nc(NCc2ccccc2)c2c(-c3ccccc3)cccc2c1-c1cncc(S(N)(=O)=O)c1` [Example 17, 1-(Benzylamino)-8-phenyl-4-(5-sulfamoylpyridin-3-yl)isoquinoline-3-carboxamide], 93.5%.

On to `Nc1ccccc1-c1cc2cccc(-c3ccccc3)c2c(NCc2ccccn2)n1` [Example 49, 3-(2-aminophenyl)-8-phenyl-N-(pyridin-2-ylmethyl)isoquinolin-1-amine], for which the inhibition at 0.3 µM amounted to 52.2%. For the compound `Cc1c(-c2cncc(S(N)(=O)=O)c2)nc(NCc2ccccn2)c2c(-c3ccccc3)cccc12` [Example 8, 5-(4-Methyl-8-phenyl-1-(pyridin-2-ylmethylamino)isoquinolin-3-yl)pyridine-3-sulfonamide], the inhibition at 0.3 µM is 61.4%. With `NS(=O)(=O)c1cncc(-c2c(Cl)nc(NCc3ccccc3)c3c(-c4ccccc4)cccc23)c1` [Example 75, 5-(1-(benzylamino)-3-chloro-8-phenylisoquinolin-4-yl)pyridine-3-sulfonamide] the figure was 97.3%; with `NS(=O)(=O)c1cccc(-c2cc3cccc(-c4ccccc4)c3c(NCc3ccccn3)n2)c1` [Example 36, 3-(8-phenyl-1-(pyridin-2-ylmethylamino)isoquinolin-3-yl)benzenesulfonamide], 94.6%; with `CC(C)C(Nc1nc(Cl)c(-c2cncc(S(N)(=O)=O)c2)c2cccc(-c3ccccc3)c12)c1ccccn1` (centres unmarked) [Example 80, 5-(3-chloro-1-(2-methyl-1-(pyridin-2-yl)propylamino)-8-phenylisoquinolin-4-yl)pyridine-3-sulfonamide], 92.5%. As to `N#Cc1cccc(-c2c(Cl)nc(NCc3ccccn3)c3c(-c4ccccc4)cccc23)c1` [Example 61, 3-(3-chloro-8-phenyl-1-(pyridin-2-ylmethylamino)isoquinolin-4-yl)benzonitrile], the inhibition at 0.3 µM was determined as 95.1%. Consider `NS(=O)(=O)c1cncc(-c2cc3cccc(-c4ccccc4)c3c(NCc3ccc(F)cc3F)n2)c1` [Example 50, 5-(1-(2,4-difluorobenzylamino)-8-phenylisoquinolin-3-yl)pyridine-3-sulfonamide], for which the inhibition at 0.3 µM came to 54.1%.

For `NS(=O)(=O)c1cncc(-c2cc3cccc(-c4ccccc4)c3c(NCc3ccccn3)n2)c1` [Example 1, 5-(8-Phenyl-1-(pyridin-2-ylmethylamino)isoquinolin-3-yl)pyridine-3-sulfonamide], the inhibition at 0.3 µM stood at 95.1%. With `CC(Nc1nc(Cl)c(-c2cccc(S(N)(=O)=O)c2)c2cccc(-c3ccccc3)c12)c1ccccc1` (centres unmarked) [Example 79, 3-(3-chloro-8-phenyl-1-(1-phenylethylamino)isoquinolin-4-yl)benzenesulfonamide] the figure was 67.5%; with `CC(C)CNc1nc(-c2cncc(S(N)(=O)=O)c2)cc2cccc(-c3ccccc3)c12` [Example 24, 5-(1-(isobutylamino)-8-phenylisoquinolin-3-yl)pyridine-3-sulfonamide], 41.5%. For `NS(=O)(=O)c1cncc(-c2cc3cccc(-c4ccccc4)c3c(NCc3csc(-c4ccccc4)n3)n2)c1` [Example 72, 5-(8-phenyl-1-((2-phenylthiazol-4-yl)methylamino)isoquinolin-3-yl)pyridine-3-sulfonamide], the inhibition at 0.3 µM was 16.1%. As for `NS(=O)(=O)c1cncc(-c2cc3cccc(-c4ccccc4)c3c(N[C@H]3CCC[C@@H]3OCc3ccccc3)n2)c1` [Example 73, 5-(1-((1S,2S)-2-(benzyloxy)cyclopentylamino)-8-phenylisoquinolin-3-yl)pyridine-3-sulfonamide], the figure is 56.3%. As for `CS(=O)(=O)Nc1ccc(-c2c(Cl)nc(NCc3ccccn3)c3c(-c4ccccc4)cccc23)cc1` [Example 69, N-(4-(3-chloro-8-phenyl-1-(pyridin-2-ylmethylamino)isoquinolin-4-yl)phenyl)methanesulfonamide], the figure is 98.4%.
